Test results taken from ChEMBL document CHEMBL6182904, “Discovery of a novel molecular glue degrader targeting GSPT1/2 with a non-IMiD-based CRBN binder” (Eur J Med Chem, 2025).
Each block holds one molecule with its values, some of them ahead of it. The source made the active and inactive calls. The calls are words filed in the database; no cut-off is given here.

What was measured:
[1] = target: T1, Protein cereblon/Eukaryotic peptide chain release factor GTP-binding subunit ERF3A (Homo sapiens, UniProt Q96SW2+P15170); assay: Molecular glue activity at human full length wild type CRBN/Hibit tagged GSPT1 in human Jurkat cells assessed as induction of GSPT1 degradation; assay type: cell-based
Target sequence in this assay (Q96SW2 whole entry): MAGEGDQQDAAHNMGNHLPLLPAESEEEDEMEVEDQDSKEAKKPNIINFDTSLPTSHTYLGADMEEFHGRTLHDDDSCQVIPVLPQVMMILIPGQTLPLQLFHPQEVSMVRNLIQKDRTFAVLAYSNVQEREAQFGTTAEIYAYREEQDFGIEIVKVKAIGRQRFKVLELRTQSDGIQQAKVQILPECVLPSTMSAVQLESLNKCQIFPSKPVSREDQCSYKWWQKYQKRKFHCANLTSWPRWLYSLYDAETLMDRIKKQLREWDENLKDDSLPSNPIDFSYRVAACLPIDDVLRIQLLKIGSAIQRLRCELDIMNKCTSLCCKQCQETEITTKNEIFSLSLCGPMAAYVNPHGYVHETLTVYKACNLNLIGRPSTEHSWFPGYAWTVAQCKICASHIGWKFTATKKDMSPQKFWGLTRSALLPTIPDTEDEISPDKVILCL
Target sequence in this assay (P15170 whole entry): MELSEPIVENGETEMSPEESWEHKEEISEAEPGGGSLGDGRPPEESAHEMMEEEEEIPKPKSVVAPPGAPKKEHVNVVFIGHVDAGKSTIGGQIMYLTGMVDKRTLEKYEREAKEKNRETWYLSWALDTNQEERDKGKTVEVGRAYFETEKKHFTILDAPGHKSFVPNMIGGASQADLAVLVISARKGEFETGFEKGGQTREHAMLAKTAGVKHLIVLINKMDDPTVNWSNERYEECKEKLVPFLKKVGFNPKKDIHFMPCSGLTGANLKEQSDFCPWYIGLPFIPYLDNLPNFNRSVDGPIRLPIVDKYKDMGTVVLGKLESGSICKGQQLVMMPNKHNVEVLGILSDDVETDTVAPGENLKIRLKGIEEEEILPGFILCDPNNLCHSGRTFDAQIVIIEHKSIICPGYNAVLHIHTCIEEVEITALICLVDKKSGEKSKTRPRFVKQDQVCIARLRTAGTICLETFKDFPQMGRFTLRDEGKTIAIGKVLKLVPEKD

[2] = target: Protein cereblon (Homo sapiens) (UniProt Q96SW2); assay: Binding affinity to CRBN (unknown origin) at 10 uM relative to control
[3] = Cytotoxicity against human Jurkat cells assessed as cell growth inhibition measured after 72 hrs in presence of MLN4924 by CellTiter-Glo assay; assay type: toxicity, cell-based
[4] = target: T1, Protein cereblon/Eukaryotic peptide chain release factor GTP-binding subunit ERF3A; assay: Molecular glue activity at full length human wild type CRBN/HiBit tagged GSPT1 in human Jurkat cells assessed as induction of GSPT1 degradation at 0.1 to 10 uM incubated for 6 hrs in presence of bortezomib by Western blot analysis; assay type: cell-based; conditions: dose 0.1-10 µM
Target sequence in this assay (P15170 whole entry, looked up): as the sequence (P15170 whole entry) above
Target sequence in this assay (Q96SW2 whole entry, looked up): as the sequence (Q96SW2 whole entry) above

[5] = target: T1, Protein cereblon/Eukaryotic peptide chain release factor GTP-binding subunit ERF3A; assay: Molecular glue activity at full length wild type human CRBN/HiBit tagged GSPT1 in human Jurkat cells assessed as induction of GSPT1 degradation at 3 uM incubated for 6 hrs by Western blot analysis; assay type: cell-based
Target sequence in this assay (P15170 whole entry, looked up): as the sequence (P15170 whole entry) above
Target sequence in this assay (Q96SW2 whole entry, looked up): as the sequence (Q96SW2 whole entry) above

MEF = assay: Molecular glue activity at CRBN W386A mutant/GSPT1 in mouse MEF cells harbouring CRBN knockout assessed as induction of GSPT1 degradation at 0.1 to 10 uM incubated for 24 hrs by Western blot analysis; assay type: cell-based; conditions: dose 0.1-10 µM
[6] = target: T1, Protein cereblon/Eukaryotic peptide chain release factor GTP-binding subunit ERF3A; assay: Molecular glue activity at full length wild type human CRBN/HiBit tagged GSPT1 in human Jurkat cells harbouring cullin4 knockdown assessed as induction of GSPT1 degradation at 1 uM incubated for 6 hrs by Western blot analysis; assay type: cell-based
Target sequence in this assay (P15170 whole entry, looked up): as the sequence (P15170 whole entry) above
Target sequence in this assay (Q96SW2 whole entry, looked up): as the sequence (Q96SW2 whole entry) above

[7] = target: T1, Protein cereblon/Eukaryotic peptide chain release factor GTP-binding subunit ERF3A; assay: Molecular glue activity at full length human wild type CRBN/HiBit tagged GSPT1 in HEK293T cells assessed as induction of GSPT1 degradation incubated for 6 hrs in presence of pomalidomide by Nano-Glo luminescence assay; assay type: cell-based
Target sequence in this assay (Q96SW2 whole entry): as above
Target sequence in this assay (P15170 whole entry): as the sequence (P15170 whole entry) above

[8] = target: T2, Protein cereblon/Eukaryotic peptide chain release factor GTP-binding subunit ERF3B (Homo sapiens, UniProt Q96SW2+Q8IYD1); assay: Molecular glue activity at full length human wild type CRBN/HiBit tagged GSPT2 in human Jurkat cells assessed as induction of GSPT2 degradation at 0.1 to 10 uM incubated for 6 hrs in presence of bortezomib by Western blot analysis; assay type: cell-based; conditions: dose 0.1-10 µM
Target sequence in this assay (Q8IYD1 whole entry, looked up): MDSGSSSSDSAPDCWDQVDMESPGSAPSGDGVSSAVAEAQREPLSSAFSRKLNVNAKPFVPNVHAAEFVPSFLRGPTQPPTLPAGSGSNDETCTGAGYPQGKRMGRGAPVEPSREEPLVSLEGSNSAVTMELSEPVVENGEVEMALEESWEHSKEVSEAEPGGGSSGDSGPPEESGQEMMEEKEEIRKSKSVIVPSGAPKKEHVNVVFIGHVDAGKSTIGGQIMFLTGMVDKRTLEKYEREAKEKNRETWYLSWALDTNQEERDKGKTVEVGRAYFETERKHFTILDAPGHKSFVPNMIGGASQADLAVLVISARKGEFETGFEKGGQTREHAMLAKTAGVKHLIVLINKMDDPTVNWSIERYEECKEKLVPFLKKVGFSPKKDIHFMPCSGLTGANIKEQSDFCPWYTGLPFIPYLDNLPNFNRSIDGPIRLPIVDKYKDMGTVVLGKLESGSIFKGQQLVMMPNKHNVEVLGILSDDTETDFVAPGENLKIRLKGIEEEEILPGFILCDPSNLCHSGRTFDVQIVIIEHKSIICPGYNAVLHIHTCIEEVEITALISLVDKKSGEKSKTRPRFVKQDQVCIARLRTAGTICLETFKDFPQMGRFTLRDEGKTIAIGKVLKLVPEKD
Target sequence in this assay (Q96SW2 whole entry, looked up): as the sequence (Q96SW2 whole entry) above

[9] = target: T1, Protein cereblon/Eukaryotic peptide chain release factor GTP-binding subunit ERF3A; assay: Molecular glue activity at full length human wild type CRBN/HiBit tagged GSPT1 in HEK293T cells assessed as induction of GSPT1 degradation incubated for 6 hrs by Nano-Glo luminescence assay; assay type: cell-based
Target sequence in this assay (Q96SW2 whole entry): as above
Target sequence in this assay (P15170 whole entry): as the sequence (P15170 whole entry) above

[10] = target: T2, Protein cereblon/Eukaryotic peptide chain release factor GTP-binding subunit ERF3B; assay: Molecular glue activity at human full length wildtype CRBN/HiBiT tagged GSPT2 in human MIA PaCa-2 cells transfected with CRBN-TurboID-V5 assessed as ternary complex formation at 1 uM preincubated for 4 hrs followed by bortezomib addition and measured after 2 hrs by TurboID analysis; assay type: cell-based; conditions: time 6.0 hrs
Target sequence in this assay (Q8IYD1 whole entry, looked up): as the sequence (Q8IYD1 whole entry, looked up) above
Target sequence in this assay (Q96SW2 whole entry, looked up): as the sequence (Q96SW2 whole entry) above

[11] = target: T1, Protein cereblon/Eukaryotic peptide chain release factor GTP-binding subunit ERF3A; assay: Molecular glue activity at full length human wild type CRBN/HiBit tagged GSPT1 in HEK293T cells assessed as induction of GSPT1 degradation at 10 uM incubated for 6 hrs in presence of pomalidomide by Nano-Glo luminescence assay relative to control; assay type: cell-based
Target sequence in this assay (P15170 whole entry, looked up): as the sequence (P15170 whole entry) above
Target sequence in this assay (Q96SW2 whole entry, looked up): as the sequence (Q96SW2 whole entry) above

Jurkat [12] = assay: Cytotoxicity against human Jurkat cells assessed as cell growth inhibition measured after 72 hrs by CellTiter-Glo assay; assay type: functional
[13] = Selectivity ratio of GI50 for cytotoxicity against human MIA PaCa-2 cells assessed as cell growth inhibition measured after 72 hrs in presence of MLN4924 to GI50 for cytotoxicity against human MIA PaCa-2 cells assessed as cell growth inhibition measured after 72 hrs; assay type: functional
[14] = target: Protein cereblon/Eukaryotic peptide chain release factor GTP-binding subunit ERF3A (Mus musculus) (UniProt Q8C7D2+Q8R050); assay: Molecular glue activity at Wild type CRBN/GSPT1 in mouse MEF cells harbouring CRBN knockout assessed as induction of GSPT1 degradation at 0.1 to 10 uM incubated for 24 hrs by Western blot analysis; assay type: cell-based; conditions: dose 0.1-10 µM
Jurkat [15] = assay: Cytotoxicity against human Jurkat cells harbouring cullin4 knockdown assessed as cell growth inhibition measured after 72 hrs by CellTiter-Glo assay; assay type: functional
[16] = target: Protein cereblon (Homo sapiens) (UniProt Q96SW2); assay: Binding affinity to CRBN in HEK293T cells harbouring DDB1/Nanoluc assessed as decrease in BRET ratio incubated for 2 hrs NanoBRET engagement assay; assay type: cell-based; conditions: dose 1-30 µM
[17] = target: Protein cereblon/Eukaryotic peptide chain release factor GTP-binding subunit ERF3A (Homo sapiens, UniProt P15170+Q96SW2); assay: Molecular glue activity at LgBiT tagged CRBN/SmBiT tagged GSPT1 (unknown origin) transfected with HEK293T cells assessed as ternary complex formation incubated for 1 hr by Nano-Glo luminescence analysis; assay type: cell-based
[18] = target: T2, Protein cereblon/Eukaryotic peptide chain release factor GTP-binding subunit ERF3B; assay: Molecular glue activity at full length human wild type CRBN/GSPT2 in human Jurkat cells assessed as induction of GSPT2 degradation at 3 uM incubated for 6 hrs by Western blot analysis; assay type: cell-based
Target sequence in this assay (Q8IYD1 whole entry, looked up): as the sequence (Q8IYD1 whole entry, looked up) above
Target sequence in this assay (Q96SW2 whole entry, looked up): as the sequence (Q96SW2 whole entry) above

[19] = target: T1, Protein cereblon/Eukaryotic peptide chain release factor GTP-binding subunit ERF3A; assay: Molecular glue activity at full length human wild type CRBN/HiBit tagged GSPT1 in human Jurkat cells assessed as induction of GSPT1 degradation incubated for 6 hrs by Western blot analysis; assay type: cell-based
Target sequence in this assay (Q96SW2 whole entry): as above
Target sequence in this assay (P15170 whole entry): as the sequence (P15170 whole entry) above

[20] = target: T1, Protein cereblon/Eukaryotic peptide chain release factor GTP-binding subunit ERF3A; assay: Molecular glue activity at full length human wild type CRBN/HiBit tagged GSPT1 in human KG-1 cells assessed as induction of GSPT1 degradation at 0.1 to 10 uM incubated for 6 hrs by Western blot analysis; assay type: cell-based; conditions: dose 0.1-10 µM
Target sequence in this assay (P15170 whole entry, looked up): as the sequence (P15170 whole entry) above
Target sequence in this assay (Q96SW2 whole entry, looked up): as the sequence (Q96SW2 whole entry) above

[21] = target: T1, Protein cereblon/Eukaryotic peptide chain release factor GTP-binding subunit ERF3A; assay: Molecular glue activity at human full length wildtype CRBN/HiBiT tagged GSPT1 in human MIA PaCa-2 cells transfected with CRBN-TurboID-V5 assessed as ternary complex formation at 1 uM preincubated for 4 hrs followed by bortezomib addition and measured after 2 hrs by TurboID analysis; assay type: cell-based; conditions: time 6.0 hrs
Target sequence in this assay (P15170 whole entry, looked up): as the sequence (P15170 whole entry) above
Target sequence in this assay (Q96SW2 whole entry, looked up): as the sequence (Q96SW2 whole entry) above

[22] = target: T1, Protein cereblon/Eukaryotic peptide chain release factor GTP-binding subunit ERF3A; assay: Molecular glue activity at full length human wild type CRBN/HiBit tagged GSPT1 in HEK293T cells assessed as induction of GSPT1 degradation at 10 uM incubated for 6 hrs by Nano-Glo luminescence assay relative to control; assay type: cell-based
[23] = target: T1, Protein cereblon/Eukaryotic peptide chain release factor GTP-binding subunit ERF3A; assay: Molecular glue activity at full length wild type CRBN/HiBit tagged GSPT1 in human Jurkat cells harbouring wildtype CRBN assessed as induction of GSPT1 degradation at 0.1 to 10 uM incubated for 6 hrs by Western blot analysis; assay type: cell-based; conditions: dose 0.1-10 µM
MCF7 = assay: Selectivity ratio of GI50 for cytotoxicity against human MCF7 cells assessed as cell growth inhibition measured after 72 hrs in presence of MLN4924 to GI50 for cytotoxicity against human MCF7 cells assessed as cell growth inhibition measured after 72 hrs; assay type: functional
[24] = Selectivity ratio of GI50 for cytotoxicity against human HCT-116 cells assessed as cell growth inhibition measured after 72 hrs in presence of MLN4924 to GI50 for cytotoxicity against human HCT-116 cells assessed as cell growth inhibition measured after 72 hrs; assay type: functional
[25] = Cytotoxicity against HEK293T cells assessed as cell growth inhibition measured after 72 hrs in presence of MLN4924 by CellTiter-Glo assay; assay type: toxicity, cell-based, HEK-293T; conditions: human
[26] = Cytotoxicity against HEK293T cells assessed as cell growth inhibition measured after 72 hrs by CellTiter-Glo assay; assay type: toxicity, cell-based, HEK-293T; conditions: human
[27] = target: T1, Protein cereblon/Eukaryotic peptide chain release factor GTP-binding subunit ERF3A; assay: Molecular glue activity at full length human wild type CRBN/HiBit tagged GSPT1 in HEK293T cells assessed as induction of GSPT1 degradation at 1 uM incubated for 12 hrs by Western blot analysis; assay type: cell-based
[28] = target: T2, Protein cereblon/Eukaryotic peptide chain release factor GTP-binding subunit ERF3B; assay: Molecular glue activity at full length human wild type CRBN/GSPT2 in human Jurkat cells assessed as induction of GSPT2 degradation incubated for 6 hrs by Western blot analysis; assay type: cell-based
[29] = target: T2, Protein cereblon/Eukaryotic peptide chain release factor GTP-binding subunit ERF3B; assay: Molecular glue activity at full length wild type CRBN/HiBit tagged GSPT2 in human Jurkat cells harbouring wildtype CRBN assessed as induction of GSPT2 degradation at 0.1 to 10 uM incubated for 6 hrs by Western blot analysis; assay type: cell-based; conditions: dose 0.1-10 µM
Target sequence in this assay (Q8IYD1 whole entry, looked up): as the sequence (Q8IYD1 whole entry, looked up) above
Target sequence in this assay (Q96SW2 whole entry, looked up): as the sequence (Q96SW2 whole entry) above

[30] = target: T2, Protein cereblon/Eukaryotic peptide chain release factor GTP-binding subunit ERF3B; assay: Molecular glue activity at full length wild type CRBN/HiBit tagged GSPT2 in human Jurkat cells harbouring CRBN knockout assessed as induction of GSPT2 degradation at 0.1 to 10 uM incubated for 6 hrs by Western blot analysis; assay type: cell-based; conditions: dose 0.1-10 µM
Target sequence in this assay (Q8IYD1 whole entry, looked up): as the sequence (Q8IYD1 whole entry, looked up) above
Target sequence in this assay (Q96SW2 whole entry, looked up): as the sequence (Q96SW2 whole entry) above

[31] = target: T1, Protein cereblon/Eukaryotic peptide chain release factor GTP-binding subunit ERF3A; assay: Molecular glue activity at full length wild type CRBN/HiBit tagged GSPT1 in human Jurkat cells harbouring CRBN knockout assessed as induction of GSPT1 degradation at 0.1 to 10 uM incubated for 6 hrs by Western blot analysis; assay type: cell-based; conditions: dose 0.1-10 µM
[32] = target: T1, Protein cereblon/Eukaryotic peptide chain release factor GTP-binding subunit ERF3A; assay: Molecular glue activity at full length human wild type CRBN/HiBit tagged GSPT1 in HEK293T cells assessed as induction of GSPT1 degradation at 0.1 to 10 uM incubated for 6 hrs by Western blot analysis; assay type: cell-based; conditions: dose 0.1-10 µM

Protein cereblon (Homo sapiens), sequence (Q96SW2 whole entry): as above

- DC50 [1]: 4 µM
- Activity [2]: 13.8%
Structure (SMILES): COC(=O)c1nc(NC(=O)Cn2cnccc2=O)sc1CCc1ccccc1

- DC50 [1]: > 10 µM
- Activity [2]: inactive
Structure (SMILES): COC(=O)c1nc(NC(=O)Cn2cncc(C)c2=O)sc1CCc1ccccc1

- DC50 [1]: > 10 µM
- Activity [2]: -5.6%
Structure (SMILES): COC(=O)c1nc(NC(=O)Cn2cnc(C)c(C)c2=O)sc1Cc1ccccc1

- DC50 [1]: > 10 µM
- Activity [2]: inactive
Structure (SMILES): COC(=O)c1nc(NC(=O)Cn2cnc(C)c(C)c2=O)sc1CCc1cccc(Cl)c1

- DC50 [1]: > 10 µM
- Activity [2]: -14.4%
Structure (SMILES): COC(=O)c1nc(NC(=O)Cn2cnc3c(c2=O)CCC3)sc1CCc1ccccc1

- Activity [4]: inactive
- Activity [5]: Active
- Activity [6]: inactive
- DC50 [7]: 45 µM
- Activity [8]: inactive
- DC50 [9]: 0.2 µM
- Activity [10]: inactive
- Emax [11]: 31.7%
- Activity [14]: Active
- Activity [16]: Dose-dependent-effect
- EC50 [17]: 11.4 µM
- DC50 [1]: 1.2 µM
- Activity [18]: Active
- DC50 [19]: 0.127 µM
- Activity [20]: Active
- Activity [21]: inactive
- Emax [22]: 98.2%
- Activity [23]: Active
- Activity [2]: 47.6%
- Activity [27]: Active
- DC50 [28]: 0.0422 µM
- Activity [29]: Active
- Activity [30]: inactive
- Activity [31]: inactive
- Activity [32]: Active
Structure (SMILES): COC(=O)c1nc(NC(=O)Cn2cnc(C)c(C)c2=O)sc1CCc1ccccc1
- GI50 at 72 h [3]: 1.4 µM
- Activity (MEF): inactive
- GI50 (Jurkat [12]): 0.5 µM
- RatioGI50 [13]: 3
- GI50 (Jurkat [15]): 3.2 µM
- RatioGI50 (MCF7): 3
- RatioGI50 [24]: 3
- GI50 at 72 h [25]: 18.4 µM
- GI50 at 72 h [26]: 0.8 µM

- DC50 [1]: > 10 µM
- Activity [2]: inactive
Structure (SMILES): COC(=O)c1nc(NC(=O)Cn2cnc(C)cc2=O)sc1CCc1ccccc1

- EC50 [17]: 0.1 µM
Structure (SMILES): Cc1ccc(NC(=O)NCc2ccc3c(c2)CN(C2CCC(=O)NC2=O)C3=O)cc1Cl (stereo unspecified)

- DC50 [1]: > 10 µM
- Activity [2]: inactive
Structure (SMILES): COC(=O)c1nc(NC(=O)Cn2cnc(C)c(C)c2=O)sc1CCc1ccc(Cl)cc1

- DC50 [1]: > 10 µM
- Activity [2]: -9%
Structure (SMILES): CNC(=O)c1nc(NC(=O)Cn2cnc(C)c(C)c2=O)sc1CCc1ccccc1
